Data as given in BindingDB's records for doi:10.1021/acs.jmedchem.0c01312 (Jinan University, 2020).

Assay: Inhibition of KRas G12C mutant in human NCI-H1792 cells assessed as antiproliferative activity incubated for 3 days by CellTiter-Glo assay

EC50: 320 nM
SMILES: C=CC(=O)N1CCN(C(=O)CNc2cc(I)c(Cl)cc2O)CC1
